Source: US20150239831A1, “INHIBITORS OF CENTRAL NERVOUS SYSTEM VASOACTIVE INHIBITORY PEPTIDE RECEPTOR 2” (The Trustees Of Columbia University In The City Of New York, priority 2012, published 2015)

Columns and labels:
Type in all cases: cell-based
Parameters in all cases: expressed in transfected cells; host or cells: HEK293 cells transfected with VIPR2 in pCDNA3.1 (as described)
[1] = target: T1, VIPR2 (Homo sapiens, UniProt P41587); test: Inhibition of VIP-induced β-arrestin recruitment (% Activity Arrestin); conditions: Batch 2
T1 sequence (P41587 24-438): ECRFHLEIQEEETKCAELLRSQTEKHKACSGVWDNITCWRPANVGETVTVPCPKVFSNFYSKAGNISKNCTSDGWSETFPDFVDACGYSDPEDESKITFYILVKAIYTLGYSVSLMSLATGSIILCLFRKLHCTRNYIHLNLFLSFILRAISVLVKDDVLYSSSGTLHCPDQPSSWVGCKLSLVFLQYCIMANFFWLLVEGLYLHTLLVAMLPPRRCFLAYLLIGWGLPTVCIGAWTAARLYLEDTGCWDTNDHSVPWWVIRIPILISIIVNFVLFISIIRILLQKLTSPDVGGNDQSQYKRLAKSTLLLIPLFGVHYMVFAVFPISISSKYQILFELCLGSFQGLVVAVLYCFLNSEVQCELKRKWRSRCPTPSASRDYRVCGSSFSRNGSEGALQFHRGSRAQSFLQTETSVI
Description: (§1) In a further non-limiting embodiment of the invention, the ability of a compound to inhibit VIPR2 GPCR activity may be tested, for example, using the PathHunter® eXpress β-Arrestin GPCR system (Discoverx Corporation, Fremont, Calif., US), as used by Chu et al., 2010, Molecular Pharmacol. 7795-101. In this assay, β-Arrestin is fused to the “Enzyme Acceptor” (“EA”), an N-terminal deletion mutant of β-gal, and the GPCR of interest is fused to a smaller (42 amino acids), weakly complementing portion of the β-gal enzyme (termed “ProLink™”). In cells that stably express these fusion proteins, the interaction of β-Arrestin and the GPCR following ligand stimulation forces the complementation of the two β-gal fragments resulting in the formation of a functional enzyme that converts substrate to detectable signal. In the absence of an interaction between the GPCR and β-Arrestin, the enzyme activity is low due to the low affinity of the two enzyme fragments. For example, a nucleic acid encoding VIPR2, for example hVIPR2, may be cloned into the ProLink vector (DiscoveRx) for GPCR-ProLink fusion protein production. Parental HEK293 cells that stably express β-arrestin2-β-gal-EA fusion protein (DiscoveRx) may be detached and transiently transfected with the VIPR2-containing vector using Fugene6 transfection reagent in suspension mode. Transfected cells in assay medium may be plated into test plates, for example at 15,000 cells/25 μl/well. After overnight incubation, 500 nl of an inhibitor or test inhibitor may be introduced into the test plate followed by 2 h incubation at 37° C., 5% CO2. Flash detection reagents may be added at 12.5 μl/well. After 5 min to 1 h of room-temperature incubation, the cell plates may be read on CLIPR (PerkinElmer Life and Analytical Sciences)or Acquest (Molecular Devices, Sunnyvale, Calif.) for luminescence signal.
(§2) A series of compounds were prepared using a synthetic method analogous to that set forth in Scheme 1, above, and then tested for their ability to inhibit VIP-induced cAMP elevation and β-arrestin recruitment.
(§3) A series of compounds were prepared using a synthetic method analogous to that set forth in Scheme 1, above, and then tested for their ability to inhibit VIP-induced cAMP elevation and β-arrestin recruitment, as described herein (Discoverx Corporation, Fremont, Calif., US). Compound activities were also tested in a BRET-based assay, as described herein. The results are shown below in Tables 1-4, above.

[2] = target: T1, VIPR2; test: Inhibition of VIP-induced cAMP elevation (% Activity cAMP); conditions: Batch 2
Description: (§4) In a further non-limiting embodiment of the invention, the ability of a compound to inhibit VIPR2 and thereby […] a VIP-induced increase in cAMP may be measured using a Homogeneous Time-Resolved Fluorescence (“HTRF® assay; Cisbio Bioassays) as used in Chu et al., 2010, Molecular Pharmacol. 7795-101. In a method as used in Chu et al., 2010, Molecular Pharmacol. 7795-101, HEK293 cells may be transfected with nucleic acid encoding VIPR2, for example human VIPR2 (“hVIPR2”), for example comprised in a vector such as pCDNA3.1 vector. Successful transformants may then be selected, for example using 800 μg/ml G418. Clonal stable cell lines may then be generated by limited dilution to single cells and then may be clonally expanded and tested for VIP -dependent cAMP response. For the cAMP assay, about 3000-15,000 cells (in about 4-25 μl) may be placed in a well of an assay plate. The next day, inhibitor or test inhibitor and VIP may be added in a volume about 1-2 percent of the initial volume. Assay plates may then be returned to a cell incubator for 30 min before addition of a one-half volume of cAMP conjugate and, relative to the amount of cAMP conjugate, an equal volume of anti-cAMP conjugate (Cisbio). After at least 1 h of room-temperature incubation, HTRF signal may be read, for example using Viewlux or EnVision (PerkinElmer Life and Analytical Sciences, Waltham, Mass.). The ratio of […] at 665 nm and 620 nm times 10,000 may be calculated and plotted.
as §2, §3

[3] = target: T1, VIPR2; test: % Activity: inhibition of VIP-induced cAMP elevation and β-arrestin recruitment (Table 2)
Description: as §4, §1, §3

inhibition at 0.5 µM [1] [%] | inhibition at 1 µM [1] [%] | inhibition at 5 µM [1] [%] | inhibition at 0.5 µM [2] [%] | inhibition at 1 µM [2] [%] | inhibition at 5 µM [2] [%] | % Activity [3] [%] | Structure (SMILES)
-5.6 | 1.9 | 13.8 | 0.9 | 5.1 | 5.3 | 9.55 | CCCCNC(=O)[C@H](Cc1ccccc1)C[C@H](O)CNS(=O)(=O)c1ccc([N+](=O)[O-])cc1 [Compound B7A]
26.8 | 20.4 | 20.7 | -1.5 | 0.6 | 6.2 | 13.45 | CCCCNC(=O)[C@@H](Cc1ccccc1)C[C@H](O)CNS(=O)(=O)c1ccc([N+](=O)[O-])cc1 [Compound B7B]
13.4 | -1.3 | 0.4 | -5 | -2.5 | -2.8 | −1.2 | CC1CCC(NC(=O)[C@H](Cc2ccccc2)C[C@H](O)CNS(=O)(=O)c2ccc([N+](=O)[O-])cc2)CC1 (stereo partly drawn) [Compound B8A]
5.7 | -0.4 | -0.8 | -0.7 | 9.5 | 5.1 | 2.15 | CC1CCC(NC(=O)[C@@H](Cc2ccccc2)C[C@H](O)CNS(=O)(=O)c2ccc([N+](=O)[O-])cc2)CC1 (stereo partly drawn) [Compound B8B]
-4.3 | 8.9 | -1.2 | -3.8 | -1.6 | 2.4 | 0.6 | O=C([C@H](Cc1ccccc1)C[C@H](O)CNS(=O)(=O)c1ccc([N+](=O)[O-])cc1)N1CCOCC1 [Compound B9A]
7 | -13 | 0.3 | -5.8 | 10.4 | 3 | 1.65 | O=C([C@@H](Cc1ccccc1)C[C@H](O)CNS(=O)(=O)c1ccc([N+](=O)[O-])cc1)N1CCOCC1 [Compound B9B]
23.3 | 3 | -10.3 | -7.9 | 4.4 | -0.1 | −5.2 | C[C@H](CC(C)(C)C)NC(=O)[C@H](Cc1ccccc1)C[C@H](O)CNS(=O)(=O)c1ccc([N+](=O)[O-])cc1 [Compound B10A]
36.8 | 27.9 | 20.2 | 6.5 | 19.6 | 7.4 | 13.8000 | C[C@H](CC(C)(C)C)NC(=O)[C@@H](Cc1ccccc1)C[C@H](O)CNS(=O)(=O)c1ccc([N+](=O)[O-])cc1 [Compound B10B]
-6.5 | -16.6 | -23 | 6.7 | 3.6 | 2.1 | −10.45 | NC(=O)[C@H](Cc1ccccc1)C[C@H](O)CNS(=O)(=O)c1ccc([N+](=O)[O-])cc1 [Compound B12A]
3.5 | -9.8 | 7 | 14.6 | 12.6 | 9.7 | 8.35 | NC(=O)[C@@H](Cc1ccccc1)C[C@H](O)CNS(=O)(=O)c1ccc([N+](=O)[O-])cc1 [Compound B12B]
3.3 | 7.4 | 10.2 | 8.8 | 12.4 | 17.5 | 13.85 | O=C(NC1CCCc2ccccc21)[C@H](Cc1ccccc1)C[C@H](O)CNS(=O)(=O)c1ccc([N+](=O)[O-])cc1 (stereo partly drawn) [Compound B13A]
4.8 | 6.9 | 0.6 | 5.1 | 6.6 | 17.4 | 9.0000 | O=C(NC1CCCc2ccccc21)[C@@H](Cc1ccccc1)C[C@H](O)CNS(=O)(=O)c1ccc([N+](=O)[O-])cc1 (stereo partly drawn) [Compound B13B]
-19.5 | -13.3 | 30.8 | 2.4 | 7.2 | 23.6 | 27.2000 | O=C(NCc1ccc(F)cc1F)[C@H](Cc1ccccc1)C[C@H](O)CNS(=O)(=O)c1ccc([N+](=O)[O-])cc1 [Compound B14A]
23.9 | 20 | 24 | -5.4 | 4.7 | 18.2 | 21.1000 | O=C(NCc1ccc(F)cc1F)[C@@H](Cc1ccccc1)C[C@H](O)CNS(=O)(=O)c1ccc([N+](=O)[O-])cc1 [Compound B14B]
-5.4 | 7.9 | 5.7 | -8.1 | -6.1 | -4.3 | 0.7 | CCN(CC)C(=O)[C@H](Cc1ccccc1)C[C@H](O)CNS(=O)(=O)c1ccc([N+](=O)[O-])cc1 [Compound B15A]
-3.6 | 1.2 | -2.7 | 0.5 | -8.4 | -10.5 | −6.6 | CCN(CC)C(=O)[C@@H](Cc1ccccc1)C[C@H](O)CNS(=O)(=O)c1ccc([N+](=O)[O-])cc1 [Compound B15B]
15.2 | 0.1 | -12.3 | -7.1 | -0.4 | -6.2 | −9.25 | CCNC(=O)[C@H](Cc1ccccc1)C[C@H](O)CNS(=O)(=O)c1ccc([N+](=O)[O-])cc1 [Compound B16A]
-10 | 6 | -7.6 | -13.2 | -0.9 | -22.2 | −14.9 | CCNC(=O)[C@@H](Cc1ccccc1)C[C@H](O)CNS(=O)(=O)c1ccc([N+](=O)[O-])cc1 [Compound B16B]
